Counter-ions that a name gives are not always drawn.
Target: IDO1 (Homo sapiens, UniProt P14902)
Assay: IDO1 Human Whole Blood Assay
Type: cell-based
Conditions: LPS and IFNγ 100 ng/mL, 18 h, kynurenine by LC/MS/MS, read-out: Human Whole Blood Potency, IC50
Description: IDO1 Human Whole Blood Assay
Compounds to be tested were serially diluted in ten 3-fold steps in DMSO starting from 10 mM. […] LPS and IFNγ was prepared in RPMI to a 10× of final conc. (1000 ng/mL), final concentration is 100 ng/mL.
240 μL of blood was transferred to each of the wells of a v-bottom 96 well plate. 30 μL of compound was transferred from intermediate dilution plate, and incubated for 15 min. 30 μL from stimulants was then transferred to blood and mixed thoroughly. Plate was covered with breathable membrane and incubated at 37° C. for overnight (18 h).
On day 2 isotope labeled standard of kynurenine and tryptophan was made in water at 10× concentration and 30 μL was added to the blood at 3 μM final concentration. The assay plates were centrifuged at 300×G for 10 min with no brake to separate plasma from red blood cells. 60 μL of plasma samples was removed without disturbing red blood cells. Plasma was diluted with RPMI in 1:1 ratio and proteins were precipitated out with two volume of
Acetonitrile. The plates were centrifuged at 4000×G for 60 min. 20 μL of supernatant was carefully transferred to a 384 well plate contain 40 μL of 0.1% formic acid in water and analyzed by LC/MS/MS.
LC/MS/MS analyses were performed using Thermo Fisher's LX4-TSQ Quantum Ultra system. This system consists of four Agilent binary high-performance liquid chromatography (HPLC) pumps and a TSQ Quantum Ultra triple quadrupole MS/MS instrument. For each sample, 5 μL were injected onto an Atlantis T3 column (2.1 mm×150 mm, 3 μm particle size) from Waters. The mobile phase gradient pumped at 0.8 mL/min was used to elute the analytes from the column at 25° C. […] Mobile phase A consisted of 0.1% formic acid in water. Mobile phase B consisted of 0.1% of formic acid in acetonitrile. Data was acquired in positive mode using a HESI interface. The operational parameters for the TSQ Quantum Ultra instrument were a spray voltage of 4000 V, capillary temperature of 380° C., vaporizer temperature 400° C., shealth gas 60 arbitrary units, Aux gas 20 arbitrary units, tube lens 85 and collision gas 1.2 mTorr. SRM chromatograms of kynurenine (Q1: 209.2>Q3:94.0) and internal standard (Q1: 215.3>Q3:98.2) were collected for 90 sec. The peak area was integrated by Xcalibur Quan software. The ratios between the kynurenine generated in the reaction and 2D6-Kynurenine spiked-in internal standard were used to generate percentage inhibition and IC50 values. Compounds were titrated and IC50's were calculated by 4 parameter sigmoidal curve fitting formula.
The biological activity data of selective compounds using the IDO1 human whole blood assay described above are summarized in the table below.

Chain of IDO1 (P14902 whole entry): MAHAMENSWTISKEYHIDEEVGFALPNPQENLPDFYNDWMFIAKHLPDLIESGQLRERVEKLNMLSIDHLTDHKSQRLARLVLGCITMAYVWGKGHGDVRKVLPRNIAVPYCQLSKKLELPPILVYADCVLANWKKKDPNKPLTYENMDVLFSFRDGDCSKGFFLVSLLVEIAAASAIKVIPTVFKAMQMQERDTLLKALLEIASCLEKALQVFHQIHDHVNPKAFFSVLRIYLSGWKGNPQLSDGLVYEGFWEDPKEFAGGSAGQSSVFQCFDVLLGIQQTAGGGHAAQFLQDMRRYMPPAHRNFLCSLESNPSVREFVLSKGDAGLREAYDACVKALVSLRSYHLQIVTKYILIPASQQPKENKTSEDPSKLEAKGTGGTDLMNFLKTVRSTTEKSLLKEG

| Compound | IC50 |
| --- | --- |
| O=C(NC1(c2ccc(-c3cnc(OC4CC4)cc3CO)cc2)CC1)c1ccc(F)cc1 [Example 48, N-(1-(4-(6-cyclopropoxy-4-(hydroxymethyl)pyridin-3-yl)phenyl)cyclopropyl)-4-fluorobenzamide] | 922 nM |
| N#Cc1ccc(C(=O)NC2(c3ccc(-c4ccc(C5CC5)nc4CO)cc3)CCC2)cc1 [Example 25, 4-cyano-N-(1-(4-(6-cyclopropyl-2-(hydroxymethyl)pyridin-3-yl)phenyl)cyclobutyl)benzamide] | 587 nM |
| Cc1cc(C2CC2)ncc1-c1ccc(C2(NC(=O)c3ccc(C#N)cc3)CCC2)cc1F [Example 7, 4-Cyano-N-(1-(4-(6-cyclopropyl-4-methylpyridin-3-yl)-3-fluorophenyl)cyclobutyl)benzamide] | 398 nM |
| CC(C)(O)c1cc(OC2CC2)ncc1-c1ccc(C2(NC(=O)c3ccc(F)cc3)CC2)cc1 [Example 47, N-(1-(4-(6-cyclopropoxy-4-(2-hydroxypropan-2-yl)pyridin-3-yl)phenyl)cyclopropyl)-4-fluorobenzamide] | 127 nM |
| Cc1cc(C2CC2)ncc1-c1ccc(C2(NC(=O)c3ccc(C#N)cc3)CCC2)nc1 [Example 42, 4-Cyano-N-(1-(6′-cyclopropyl-4′-methyl-[3,3′-bipyridin]-6-yl)cyclobutyl)benzamide] | 392 nM |
| O=C(NC1(c2ccc(-c3cnc(C(F)(F)F)cc3CO)cc2)CCC1)c1ccc(F)cc1 [Example 53] | 1000 nM |
| C[C@H](O)c1cc(C(F)(F)F)ncc1-c1ccc(C2(NC(=O)c3ccc(F)cc3)CC2)cc1 [Example 50, (S)-4-fluoro-N-(1-(4-(4-(1-hydroxyethyl)-6-(trifluoromethyl)pyridin-3-yl)phenyl)cyclopropyl)benzamide] | 186 nM |
| CC(C)(O)c1cc(OC2CC2)ncc1-c1ccc(C2(NC(=O)c3ccc(F)cc3)CCC2)cc1 [Example 54, N-(1-(4-(6-cyclopropoxy-4-(2-hydroxypropan-2-yl)pyridin-3-yl)phenyl)cyclobutyl)-4-fluorobenzamide] | 336 nM |
| C[C@@H](O)c1cc(C(F)(F)F)ncc1-c1ccc(C2(NC(=O)c3ccc(F)cc3)CC2)cc1 [Example 51, (R)-4-fluoro-N-(1-(4-(4-(1-hydroxyethyl)-6-(trifluoromethyl)pyridin-3-yl)phenyl)cyclopropyl)benzamide, 2,2,2-trifluoroacetate salt] | 233 nM |
| O=C(NC1(c2ccc(-c3cnc(C(F)(F)F)cc3CO)cc2)CC1)c1ccc(Cl)cc1 [Example 46, 4-chloro-N-(1-(4-(4-(hydroxymethyl)-6-(trifluoromethyl)pyridin-3-yl)phenyl)cyclopropyl)benzamide] | 703 nM |
| CC1CC1(NC(=O)c1ccc(F)cc1)c1ccc(-c2cnc(C(F)(F)F)cc2C(C)(C)O)nc1 (single isomer, unassigned) [Example 60] | 210 nM |
| CC(C)(O)c1cc(C(F)(F)F)ncc1-c1ccc(C2(NC(=O)c3ccc(F)cc3)CCC2)cc1 [Example 52, 4-fluoro-N-(1-(4-(4-(2-hydroxypropan-2-yl)-6-(trifluoromethyl)pyridin-3-yl)phenyl)cyclobutyl)benzamide] | 152 nM |
| CC1CC1(NC(=O)c1ccc(F)cc1)c1ccc(-c2cnc(C(F)(F)F)cc2C(C)(C)O)nc1 (single isomer, unassigned) [Example 59] | 171 nM |
| CC(C)Oc1cc(CO)c(-c2ccc(C3(NC(=O)c4ccc(F)cc4)CC3)cc2)cn1 [Example 49, 4-fluoro-N-(1-(4-(4-(hydroxymethyl)-6-isopropoxypyridin-3-yl)phenyl)cyclopropyl)benzamide] | 579 nM |
| Cc1cc(C2CC2)ncc1-c1ccc(C2(NC(=O)c3ccc(C#N)cc3)CCC2)cc1 [Example 12, 4-cyano-N-(1-(4-(6-cyclopropyl-4-methylpyridin-3-yl)phenyl)cyclobutyl)benzamide] | 246 nM |
| COc1cc(C)c(-c2ccc(C3(NC(=O)c4ccc(C#N)cc4)CCC3)cc2)c(C)n1 [Example 36, 4-cyano-N-(1-(4-(6-methoxy-2,4-dimethylpyridin-3-yl)phenyl)cyclobutyl)benzamide] | 308 nM |
| CC1CC1(NC(=O)c1ccc(F)cc1)c1ccc(-c2cnc(C(F)(F)F)cc2C(C)(C)O)nc1 (single isomer, unassigned) [Example 58] | 284 nM |
| CC1CC1(NC(=O)c1ccc(F)cc1)c1ccc(-c2cnc(C(F)(F)F)cc2C(C)(C)O)nc1 (single isomer, unassigned) [Example 56, 4-fluoro-N-(1-(4′-(2-hydroxypropan-2-yl)-6′-(trifluoromethyl)-[2,3′-bipyridin]-5-yl)-2-methylcyclopropyl)benzamide] | 361 nM |
| N#Cc1ccc(C(=O)NC2(c3ccc(-c4cnc(C(F)(F)F)cc4CO)cc3)CCC2)cc1 [Example 35, 4-cyano-N-(1-(4-(4-(hydroxymethyl)-6-(trifluoromethyl)pyridin-3-yl)phenyl)cyclobutyl)benzamide] | 1070 nM |

From patent US11498904B2, “Substituted biaryl compounds as indoleamine 2,3-dioxygenase (IDO) inhibitors” (MERCK SHARP & DOHME CORP., priority 2017, dated 2022)
